# Target: T1, EPHA6 (Homo sapiens, UniProt Q9UF33)
# T1 construct: purchased Thermo Fisher Scientific (Life Technologies) SelectScreen
# Experiment: SelectScreen LanthaScreen
# Format: binding
# Conditions: read-out: % displacement
# Outline: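 SelectScreen broad panel; activity (Z'LYTE, Adapta) plus binding formats. ATP: Km app for CSF1R Z'LYTE; 10 for CAMK1 Adapta. Readout = % per kinase.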
# T1 sequence (Q9UF33 23-1036): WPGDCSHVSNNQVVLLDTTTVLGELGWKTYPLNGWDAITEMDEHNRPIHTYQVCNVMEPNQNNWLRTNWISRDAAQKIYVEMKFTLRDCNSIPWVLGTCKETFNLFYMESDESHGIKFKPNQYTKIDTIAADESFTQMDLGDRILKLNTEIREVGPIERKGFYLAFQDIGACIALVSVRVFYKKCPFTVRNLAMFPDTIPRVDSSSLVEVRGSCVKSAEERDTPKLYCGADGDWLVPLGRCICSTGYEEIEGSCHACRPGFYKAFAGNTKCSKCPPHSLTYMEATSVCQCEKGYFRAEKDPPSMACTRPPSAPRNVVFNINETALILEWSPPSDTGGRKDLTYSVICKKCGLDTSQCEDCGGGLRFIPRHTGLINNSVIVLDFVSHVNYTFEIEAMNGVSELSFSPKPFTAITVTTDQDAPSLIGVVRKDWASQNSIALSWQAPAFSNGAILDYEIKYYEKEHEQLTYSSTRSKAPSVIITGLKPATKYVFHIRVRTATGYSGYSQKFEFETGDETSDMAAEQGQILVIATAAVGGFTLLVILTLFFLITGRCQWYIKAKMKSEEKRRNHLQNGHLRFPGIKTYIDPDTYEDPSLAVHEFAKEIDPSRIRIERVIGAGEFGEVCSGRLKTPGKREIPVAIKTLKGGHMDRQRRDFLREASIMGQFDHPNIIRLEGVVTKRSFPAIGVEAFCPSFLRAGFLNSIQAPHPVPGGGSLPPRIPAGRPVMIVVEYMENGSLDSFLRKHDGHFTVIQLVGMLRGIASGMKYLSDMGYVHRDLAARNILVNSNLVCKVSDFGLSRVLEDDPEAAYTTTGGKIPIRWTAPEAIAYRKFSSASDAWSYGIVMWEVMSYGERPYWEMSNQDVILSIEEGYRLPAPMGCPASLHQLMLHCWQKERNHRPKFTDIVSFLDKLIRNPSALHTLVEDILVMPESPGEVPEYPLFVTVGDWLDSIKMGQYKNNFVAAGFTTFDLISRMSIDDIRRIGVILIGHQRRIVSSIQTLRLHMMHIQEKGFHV
structure (smiles),measurement,value
CN(C(=O)CN1CCOCC1)c1ccc2sc3c(-c4cccc5c(=O)cc(N6CC7CCC(C6)O7)oc45)cccc3c2c1 [NU5455],inhibition at 1 µM,1.6%

# — paper PMC6934184, “Selective DNA-PKcs inhibition extends the therapeutic index of localized radiotherapy and chemotherapy” (The Journal of Clinical Investigation, 2019)
